Results from US12570612B2, “Substituted nitrogen heterocyclic compound and anesthetic effect thereof” (priority 2019, dated 2026).
Read-outs that look alike come from different tables or passages of the source.

Tests used:
[1] = system: Sprague-Dawley rats; test: animal or person; assay type: in vivo; conditions: rats
Excerpt: Evaluating indicator: The end point of anesthesia: the disappearance of forepaw righting reflex (lorr) was used as the end point of anesthesia; General anesthesia effect: the disappearance of forepaw righting reflex in rats lasting for 30 seconds is taken as the index of general anesthesia effect; Anesthesia recovery index: the recovery of rat forepaw righting reflex was used as the index of anesthesia recovery.

[2] = system: Sprague-Dawley rats; assay type: in vivo; conditions: tail vein
[3] = system: Sprague-Dawley rats; test: animal or person; assay type: in vivo; conditions: rats; for ED50: LORR, up and down method, tail vein, class symbols
Excerpt: Evaluating indicator: The end point of anesthesia: LORR was used as the end point of anesthesia; General anesthesia effect: the disappearance of forepaw righting reflex in rats lasting for 30 seconds is taken as the index of general anesthesia effect; Anesthesia recovery index: the recovery of rat forepaw righting reflex was used as the index of anesthesia recovery.

[4] = system: Sprague-Dawley rats; assay type: in vivo; conditions: tail vein; remark: listed apart in the source
[5] = system: Sprague-Dawley rats; test: Pharmacological effect and adverse reactions under the equivalent dose (2ED50), Group C compounds; assay type: in vivo; conditions: for Righting reflex duration / Sedation duration / Onset time: 2ED50, tail vein, rats, n=8; for Adverse reaction: Convulsions / Adverse reaction: Cough, broken-winded / Adverse reaction: Euphoria / Adverse reaction: Red urine / Adverse reaction: Slower breathing, Tetany convulsion / Adverse reaction: Systemic stiffness, Convulsions, Opisthotonus / Adverse reaction: Tongue stretching / Adverse reaction: Tremor / Adverse reaction: the four limbs rigidity: equivalent dose (2ED50), number of rats of n = 8
Excerpt: Evaluation index: onset time: from the completion of drug injection to the disappearance of forepaw righting reflex in rats; Duration of anesthesia: the time from the disappearance of rat forepaw righting reflex to the recovery of rat forepaw righting reflex; Recovery time of anesthesia: the time from the […] to complete recovery;

[6] = system: SD rats; conditions: for After the infusion is stopped: Righting reflex recovery time / Recovery time after stopping infusion: after 1 hour continuous infusion at 2 times the MIR; for After the infusion is stopped: Righting reflex recovery time / Recovery time after stopping infusion / Sedation onset time: SD rats; for Types and incidence of adverse reactions: Red urine / Types and incidence of adverse reactions: Tremor / Types and incidence of adverse reactions: Tongue stretching: continuous infusion 2 x MIR 1 hour, rats affected/rats; for Sedation onset time: continuous tail vein infusion at 2 times the MIR
Description: Experimental Methods: Adult male SD rats with body weight ranging from 250 g to 350 g were selected for continuous infusion test.
Evaluation indexes: the time from the beginning of continuous infusion to the […] of sedation in rats; the time from the cessation of infusion to the restoration of the forepaw turning reflex after 1 hour of continuous infusion; the time from the cessation of infusion to the complete restoration of rats after 1 hour of continuous infusion.

[7] = Rattus norvegicus, read-out: ED50

SMILES | ED50 [3, 7] [mg/kg] | Approximate therapeutic index [3] | Minimal lethal dose [4] [mg/kg] | Righting reflex duration [5] [min] | Sedation duration [5] [min] | Onset time ([5]; unit s) [s] | Adverse reaction: Convulsions [5] | Adverse reaction: Cough, broken-winded [5] | Adverse reaction: Euphoria [5] | Adverse reaction: Red urine [5] | Adverse reaction: Slower breathing, Tetany convulsion [5] | Adverse reaction: Systemic stiffness, Convulsions, Opisthotonus [5] | Adverse reaction: Tongue stretching [5] | Adverse reaction: Tremor [5] | Adverse reaction: the four limbs rigidity [5] | After the infusion is stopped: Righting reflex recovery time [6] [min] | Recovery time after stopping infusion [6] [min] | Types and incidence of adverse reactions: Red urine [6] | Types and incidence of adverse reactions: Tremor [6] | Sedation onset time [6] [min] | further results
COC(=O)C(=O)c1ccnn1[C@H](C)c1ccccc1 [Compound D11] |  |  |  |  |  |  |  |  |  |  |  |  |  |  |  |  |  |  |  |  | ED50 ([1]; Rattus norvegicus, LORR, up and down method, tail vein, class symbols, read-out: ED50): > 6 mg/kg; Approximate therapeutic index [1]: >4.6; Minimal lethal dose [2]: >30.2 mg/kg
C[C@H](c1ccccc1)n1cncc1C(=O)COCCC1CCC1 [Compound C40] | 0.5 to 1 | >13.8 | >8.3 | 3.76 ± 1.75 | 10.48 ± 2.58 | <30 | 1 | 0 | 0 | 8 | 1 | 1 | 0 | 0 | 0 | 16 to 20 | 27 to 35 | 6/6 | 2/6 | <5 | 
CCOCC(=O)c1cncn1[C@H](C)c1ccccc1 [Compound C34] | 2 to 10 | >2.6 | >12.8 | 2.26 ± 0.81 | 4.89 ± 0.98 | <30 | 0 | 0 | 1 | 8 | 0 | 6 | 1 | 0 | 0 | 15 to 20 | 22 to 28 | 6/6 | 2/6 | <5 | Types and incidence of adverse reactions: Tongue stretching [6]: Tongue stretching(4/6)
COCC(=O)c1c(F)ncn1[C@H](C)c1ccccc1 [Compound C71] |  | >8.0 | >6.6 | 2.00 ± 0.81 | 5.11 ± 1.64 | <30 | 2 | 0 | 0 | 8 | 0 | 0 | 0 | 1 | 1 |  |  |  |  |  | ED50 [3]: ++ (++ means that the measured ED50 is in the range of 0.50-1.00 mg/kg (excluding 0.50 mg/kg, including 1.00 mg/kg))
C#CCOCC(=O)c1cncn1[C@H](C)c1ccccc1 [Compound C35] | 0.5 to 1 | >12.9 | >10.3 | 2.26 ± 0.81 | 4.89 ± 0.98 | <30 | 0 | 0 | 0 | 8 | 0 | 7 | 1 | 0 | 0 |  |  |  |  |  | 
C[C@H](c1ccccc1)n1cncc1C(=O)COCC1CC1 [Compound C46] | 2 to 10 | >2.4 | >11.8 | 1.82 ± 0.64 | 5.63 ± 1.52 | <30 | 0 | 0 | 0 | 8 | 0 | 0 | 1 | 1 | 0 |  |  |  |  |  | 
CCOCC(=O)c1c(F)ncn1[C@H](C)c1ccccc1 [Compound C72] | 0.04 to 0.5 | >27.7 | >8.9 | 1.29 ± 0.64 | 5.70 ± 1.51 |  | 0 | 0 | 0 | 8 | 0 | 0 | 0 | 0 | 0 |  |  |  |  |  | Onset time ([5]; unit min): <60 s
C[C@H](c1ccccc1)n1cnc(F)c1C(=O)COCCC1CCC1 [Compound C74] | 0.04 to 0.5 | >42.9 | >6.0 | 1.37 ± 0.63 | 5.68 ± 1.10 |  | 0 | 0 | 0 | 8 | 0 | 0 | 0 | 1 | 0 | 13 to 18 | 18 to 24 | 6/6 | 4/6 | <5 | Onset time ([5]; unit min): <60 s; Types and incidence of adverse reactions: Tongue stretching [6]: Tongue stretching(4/6)
CC#CCOCC(=O)c1c(F)ncn1[C@H](C)c1ccccc1 [Compound C69] | 0.04 to 0.5 | >19.2 | >4.2 | 1.91 ± 0.68 | 6.28 ± 1.62 | <30 | 0 | 0 | 0 | 8 | 0 | 1 | 0 | 0 | 0 |  |  |  |  |  | 
